Results taken from ChEMBL document CHEMBL1781959, “Synthesis and in vitro antitumor activity of substituted quinazoline and quinoxaline derivatives: search for anticancer agent” (Eur J Med Chem, 2011).

Columns and labels:
Format in all cases: functional
K562 = assay: Anticancer activity against human K562 cells assessed as cell growth promotion at 10^-5 M after 48 hrs by SRB assay relative to control
CAKI-1 = assay: Anticancer activity against human Caki1 cells assessed as cell growth promotion at 10^-5 M after 48 hrs by SRB assay relative to control
A549 = assay: Anticancer activity against human A549 cells assessed as cell growth promotion at 10^-5 M after 48 hrs by SRB assay relative to control
SF-268 = assay: Anticancer activity against human SF268 cells assessed as cell growth promotion at 10^-5 M after 48 hrs by SRB assay relative to control
[1] = Anticancer activity against human Hs 578T cells assessed as cell growth promotion at 10^-5 M after 48 hrs by SRB assay relative to control
EKVX = assay: Anticancer activity against human EKVX cells assessed as cell growth promotion at 10^-5 M after 48 hrs by SRB assay relative to control
SK-MEL-28 = assay: Anticancer activity against human SK-MEL-28 cells assessed as cell growth promotion at 10^-5 M after 48 hrs by SRB assay relative to control
UO-31 = assay: Anticancer activity against human UO31 cells assessed as cell growth promotion at 10^-5 M after 48 hrs by SRB assay relative to control
MDA-MB-435 = assay: Anticancer activity against human MDA-MB-435 cells assessed as cell growth promotion at 10^-5 M after 48 hrs by SRB assay relative to control
OVCAR-8 = assay: Anticancer activity against human OVCAR8 cells assessed as cell growth promotion at 10^-5 M after 48 hrs by SRB assay relative to control
MCF7 = assay: Anticancer activity against human MCF7 cells assessed as cell growth promotion at 10^-5 M after 48 hrs by SRB assay relative to control
OVCAR-3 = assay: Anticancer activity against human OVCAR3 cells assessed as cell growth promotion at 10^-5 M after 48 hrs by SRB assay relative to control
HCT-15 = assay: Anticancer activity against human HCT15 cells assessed as cell growth promotion at 10^-5 M after 48 hrs by SRB assay relative to control
SNB-19 = assay: Anticancer activity against human SNB19 cells assessed as cell growth promotion at 10^-5 M after 48 hrs by SRB assay relative to control
RXF 393 = assay: Anticancer activity against human RXF393 cells assessed as cell growth promotion at 10^-5 M after 48 hrs by SRB assay relative to control
MOLT-4 = assay: Anticancer activity against human MOLT4 cells assessed as cell growth promotion at 10^-5 M after 48 hrs by SRB assay relative to control
DU-145 = assay: Anticancer activity against human DU145 cells assessed as cell growth promotion at 10^-5 M after 48 hrs by SRB assay relative to control
MDA-MB-468 = assay: Anticancer activity against human MDA-MB-468 cells assessed as cell growth promotion at 10^-5 M after 48 hrs by SRB assay relative to control
SK-MEL-5 = assay: Anticancer activity against human SK-MEL-5 cells assessed as cell growth promotion at 10^-5 M after 48 hrs by SRB assay relative to control
SN12C = assay: Anticancer activity against human SN12C cells assessed as cell growth promotion at 10^-5 M after 48 hrs by SRB assay relative to control
CCRF-CEM = assay: Anticancer activity against human CCRF-CEM cells assessed as cell growth promotion at 10^-5 M after 48 hrs by SRB assay relative to control
786-0 = assay: Anticancer activity against human 786-0 cells assessed as cell growth promotion at 10^-5 M after 48 hrs by SRB assay relative to control
UACC-257 = assay: Anticancer activity against human UACC257 cells assessed as cell growth promotion at 10^-5 M after 48 hrs by SRB assay relative to control
KM12 = assay: Anticancer activity against human KM12 cells assessed as cell growth promotion at 10^-5 M after 48 hrs by SRB assay relative to control
HCC 2998 = assay: Anticancer activity against human HCC2998 cells assessed as cell growth promotion at 10^-5 M after 48 hrs by SRB assay relative to control
SF-295 = assay: Anticancer activity against human SF295 cells assessed as cell growth promotion at 10^-5 M after 48 hrs by SRB assay relative to control
A498 = assay: Anticancer activity against human A498 cells assessed as cell growth promotion at 10^-5 M after 48 hrs by SRB assay relative to control
NCI-H460 = assay: Anticancer activity against human NCI-H460 cells assessed as cell growth promotion at 10^-5 M after 48 hrs by SRB assay relative to control
MDA-MB-231 = assay: Anticancer activity against human MDA-MB-231 cells assessed as cell growth promotion at 10^-5 M after 48 hrs by SRB assay relative to control
NCI/ADR-RES = assay: Anticancer activity against human NCI/ADR-RES cells assessed as cell growth promotion at 10^-5 M after 48 hrs by SRB assay relative to control
NCI-H226 = assay: Anticancer activity against human NCI-H226 cells assessed as cell growth promotion at 10^-5 M after 48 hrs by SRB assay relative to control
SF-539 = assay: Anticancer activity against human SF539 cells assessed as cell growth promotion at 10^-5 M after 48 hrs by SRB assay relative to control
OVCAR-5 = assay: Anticancer activity against human OVCAR5 cells assessed as cell growth promotion at 10^-5 M after 48 hrs by SRB assay relative to control
PC-3 = assay: Anticancer activity against human PC3 cells assessed as cell growth promotion at 10^-5 M after 48 hrs by SRB assay relative to control
SR = assay: Anticancer activity against human SR cells assessed as cell growth promotion at 10^-5 M after 48 hrs by SRB assay relative to control
TK-10 = assay: Anticancer activity against human TK10 cells assessed as cell growth promotion at 10^-5 M after 48 hrs by SRB assay relative to control
HCT-116 = assay: Anticancer activity against human HCT116 cells assessed as cell growth promotion at 10^-5 M after 48 hrs by SRB assay relative to control
Malme-3M = assay: Anticancer activity against human MALME-3M cells assessed as cell growth promotion at 10^-5 M after 48 hrs by SRB assay relative to control
SK-OV-3 = assay: Anticancer activity against human SKOV3 cells assessed as cell growth promotion at 10^-5 M after 48 hrs by SRB assay relative to control
T47D = assay: Anticancer activity against human T47D cells assessed as cell growth promotion at 10^-5 M after 48 hrs by SRB assay relative to control

| SMILES | Activity (K562) [%] | Activity (CAKI-1) [%] | Activity (A549) [%] | Activity (SF-268) [%] | Activity [1] [%] | Activity (EKVX) [%] | Activity (SK-MEL-28) [%] | Activity (UO-31) [%] | Activity (MDA-MB-435) [%] | Activity (OVCAR-8) [%] | Activity (MCF7) [%] | Activity (OVCAR-3) [%] | Activity (HCT-15) [%] | Activity (SNB-19) [%] | Activity (RXF 393) [%] | Activity (MOLT-4) [%] | Activity (DU-145) [%] | Activity (MDA-MB-468) [%] | Activity (SK-MEL-5) [%] | Activity (SN12C) [%] | other results |
| --- | --- | --- | --- | --- | --- | --- | --- | --- | --- | --- | --- | --- | --- | --- | --- | --- | --- | --- | --- | --- | --- |
| Oc1ccccc1/C=C/c1nc2ccccc2nc1SCc1nc2ccccc2[nH]1 | 77.33 | 56.68 | 77.16 | 81.66 | 48.8 | 60.4 | 95.95 | 49.71 | 81.04 | 75.12 | 51.8 | 81.53 | 74.29 | 76.6 | 87.29 | 57.51 | 76.88 | 59.53 | 68.43 | 78.21 | Activity (CCRF-CEM): 41.14%; Activity (786-0): 89.92%; Activity (UACC-257): 81.1%; Activity (KM12): 77.92%; Activity (HCC 2998): 102%; Activity (SF-295): 93.22%; Activity (A498): 92.56%; Activity (NCI-H460): 80.34%; Activity (MDA-MB-231): 53.69%; Activity (NCI/ADR-RES): 82.43%; Activity (NCI-H226): 79.35%; Activity (SF-539): 97.28%; Activity (OVCAR-5): 86.09%; Activity (PC-3): 63.9%; Activity (SR): 44.46%; Activity (TK-10): 43.48%; Activity (HCT-116): 65.39%; Activity (Malme-3M): 83.19% |
| O=C(Nc1ccccc1C(=O)Nc1ccc(/C=C/c2ccc(Cl)cc2)cc1)c1ccccc1 | 57.81 | 90.6 | 70.02 | 82.84 | 67.95 | 86.68 | 101 | 52.88 | 82.15 | 88.85 | 82.72 | 86.93 | 65.81 | 74.25 | 82.15 | 59.17 | 107 | 83.46 | 82.15 | 79.73 | Activity (SK-OV-3): 95.35%; Activity (CCRF-CEM): 52.41%; Activity (786-0): 75.14%; Activity (UACC-257): 94.73%; Activity (KM12): 64.38%; Activity (HCC 2998): 78.38%; Activity (SF-295): 52.07%; Activity (T47D): 82.14%; Activity (NCI-H460): 72.92%; Activity (MDA-MB-231): 81.11%; Activity (NCI/ADR-RES): 95.06%; Activity (NCI-H226): 85.77%; Activity (SF-539): 91.8%; Activity (OVCAR-5): 123%; Activity (PC-3): 65.2%; Activity (SR): 81.19%; Activity (TK-10): 123%; Activity (HCT-116): 49.35%; Activity (Malme-3M): 91.75% |
| CN(C)c1ccc(/C=C/c2nc3ccccc3nc2SCc2nc3ccccc3[nH]2)cc1 | 105 | 107 | 97.05 | 107 | 119 | 92.96 | 124 | 84.96 | 102 | 108 | 77.51 | 107 | 93.83 | 96.81 | 99.96 | 84.64 | 95.35 | 109 | 97.96 | 100 | Activity (CCRF-CEM): 81.79%; Activity (786-0): 90.32%; Activity (UACC-257): 102%; Activity (KM12): 104%; Activity (HCC 2998): 90.32%; Activity (SF-295): 104%; Activity (A498): 88.48%; Activity (NCI-H460): 104%; Activity (MDA-MB-231): 89.23%; Activity (NCI/ADR-RES): 106%; Activity (NCI-H226): 105%; Activity (SF-539): 85.81%; Activity (OVCAR-5): 102%; Activity (PC-3): 119%; Activity (SR): 79.22%; Activity (TK-10): 113%; Activity (HCT-116): 87.81%; Activity (Malme-3M): 102% |
| Oc1ccc(/C=C/c2nc3ccccc3nc2SCc2nc3ccccc3[nH]2)cc1 | 107 | 76.71 | 85.66 | 91.53 | 110 | 92.68 | 102 | 85.96 | 96.11 | 100 | 89.91 | 102 | 96.67 | 97.81 | 106 | 75.47 | 97.51 | 114 | 95.26 | 94.78 | Activity (CCRF-CEM): 77.99%; Activity (786-0): 94.31%; Activity (UACC-257): 117%; Activity (KM12): 98.91%; Activity (HCC 2998): 123%; Activity (SF-295): 82.46%; Activity (A498): 88.72%; Activity (NCI-H460): 95.51%; Activity (MDA-MB-231): 95.18%; Activity (NCI/ADR-RES): 100%; Activity (NCI-H226): 99.33%; Activity (SF-539): 111%; Activity (OVCAR-5): 102%; Activity (PC-3): 96.98%; Activity (SR): 99.18%; Activity (TK-10): 107%; Activity (HCT-116): 89.77%; Activity (Malme-3M): 86.88% |
| N#Cc1ccc(/C=C/c2nc3ccccc3nc2SCc2nc3ccccc3[nH]2)cc1 | 99.2 | 111 | 93.12 | 109 | 107 | 99.04 | 88.08 | 86.51 | 109 | 103 | 101 | 110 | 114 | 100 | 107 | 88.59 | 103 | 104 | 101 | 94.09 | Activity (CCRF-CEM): 93.78%; Activity (786-0): 90.69%; Activity (UACC-257): 113%; Activity (KM12): 104%; Activity (SF-295): 127%; Activity (A498): 105%; Activity (NCI-H460): 104%; Activity (MDA-MB-231): 97.02%; Activity (NCI/ADR-RES): 103%; Activity (NCI-H226): 95.59%; Activity (SF-539): 125%; Activity (OVCAR-5): 104%; Activity (PC-3): 103%; Activity (SR): 97.73%; Activity (TK-10): 86.49%; Activity (HCT-116): 88.47%; Activity (Malme-3M): 90.35% |
